Test results reported in ChEMBL document CHEMBL1158905, “Two New Bioactive Cyclic Peroxides from the Marine Sponge Plakortis angulospiculatus” (J Nat Prod, 1990).
Values after ≈ are worked out from the molar mass of the structure shown. Active and inactive are the calls of the source. No cut-off for these calls is given here.

Assays:
[1] = system: Aspergillus nidulans; experiment: Antimicrobial activity against Aspergillus nidulans by at 20 ug/disk by disk diffusion method; type: functional, organism-based
[2] = system: Bacillus subtilis; experiment: Antimicrobial activity against Bacillus subtilis by at 20 ug/disk by disk diffusion method; type: functional, organism-based
[3] = system: P388; experiment: Cytotoxicity against mouse P388 cells; type: functional, cell-based
[4] = system: Escherichia coli; experiment: Antimicrobial activity against Escherichia coli by at 20 ug/disk by disk diffusion method; type: functional, organism-based
[5] = system: Candida albicans; experiment: Antimicrobial activity against Candida albicans ATCC 44506 by broth microdilution method; type: functional

SMILES | Activity [1] | Activity [2] | IC50 [3] | Activity [4] | MIC [5]
CCCCC(CC)CC(C)CC1(CC)C=C(CC)C(CC(=O)OC)OO1 (stereo not given) | inactive | inactive | 0.2 mg/L (≈ 0.543 µM) | inactive | > 50 mg/L
CCCCC(CC)CC(C)CC1(CC)C=C(CC)C(CC(=O)O)OO1 (stereo not given) | Active | Active | 0.2 mg/L (≈ 0.564 µM) | inactive | 1.6 mg/L (≈ 4.51 µM)
CC/C=C/C(CC)CC(C)CC1(CC)C=C(CC)C(CC(=O)O)OO1 (stereo not given) | Active | Active | 0.3 mg/L (≈ 0.851 µM) | inactive | 1.6 mg/L (≈ 4.54 µM)
CC/C=C/C(CC)CC(C)CC1(CC)C=C(CC)C(CC(=O)OC)OO1 (stereo not given) | inactive | inactive | 0.9 mg/L (≈ 2.46 µM) | inactive | > 50 mg/L
